{
  "source": "patent US20260224465A1",
  "about": "“COMPOSITIONS COMPRISING A RETINOID AND A PROCESSED OAT INGREDIENT” (Kenvue Brands LLC, priority 2023, published 2026)",
  "format_in_all_cases": "cell-based",
  "key": {"[1]": {"system": "IL8", "assay": "IL8 gene expression (qPCR) in primary human dermal fibroblasts", "conditions": "30 hours of treatment, normalized against POLR2A, concentration given by sample", "description": "(§1) CRAPB2, IL8 and HAS2 were evaluated in several samples containing fermented oat, retinol, and combinations of the two in varying amounts. Retinol (BASF, 50C) was prepared by dissolving Retinol in Dimethyl Sulfoxide (DMSO) for a concentration of 20% Retinol. Retinol was then further diluted in DMEM with GlutaMAX media supplemented with 1% FBS and 1X Penn/Strep for a stock concentration of (1.1×10^−4) % and (1.1×10^−5) % Retinol. […] Fermented Oat (aurafirm P, Oat Cosmetics, Hampshire, United Kingdom; INCI Aqua, Avena sativa (Oat) Kernel Extract, Lactobacillus Ferment, Sodium Benzoate, Potassium Sorbate) was diluted in media to provide 0.2% and 1.0% Fermented Oat solutions. Primary human dermal fibroblasts were acquired from Lifeline Cell Technology, LLC (Frederick, MD 21701; lot 0967). The donor demographics were as follows: person, fibroblasts isolated from breast. Fibroblasts were cultured and expanded using Dermal Fibroblast Culture Medium (Zenbio, Inc, Durham, NC 27713). […] The cDNA was evaluated by qPCR (using the QuantStudio™ 7 Flex Real-Time PCR System from Applied Biosystems, Waltham, MA). […] The fold changes were calculated in comparison to the untreated control and two-tailed two-sample Student t-tests (Microsoft Office Excel 2007; Microsoft, Redmond, WA, USA) were performed. […]"}, "[2]": {"system": "HAS2", "assay": "HAS2 gene expression (qPCR) in primary human dermal fibroblasts", "conditions": "30 hours of treatment, normalized against POLR2A, concentration given by sample", "description": "as §1"}, "[3]": {"system": "CRABP2", "assay": "CRABP2 gene expression (qPCR) in primary human dermal fibroblasts", "conditions": "30 hours of treatment, normalized against POLR2A, concentration given by sample", "description": "as §1"}, "[4]": {"system": "HAS3", "assay": "HAS3 gene expression (qPCR) in human skin explants", "conditions": "human abdominal skin explants, topical 4 μL in PgETOH, 48 hours", "description": "(§2) Propylene glycol/ethanol (PgETOH) (3:7) (w/w) was used as a vehicle. 1% Colloidal oat (Avena Sativa Kernel Flour, Oat Cosmetics, Southampton, United Kingdom) and 0.1% Retinol solutions were each prepared in PgETOH as shown in Tables 4-7. Combinations were prepared by adding the appropriate amount of test solutions to arrive at the final concentrations as shown. Abdominal skin samples were obtained from human adults undergoing abdominoplasty surgery. Informed consent was obtained from each patient, and all experimental steps were approved by an institutional review board (IRB). Subcutaneous fat was carefully removed and skin biopsies of 0.93 cm^2 were prepared under sterile conditions and acclimated in DMEM/F12 (1:1) medium, 2% heat-inactivated fetal bovine serum, 10 μg/mL insulin, 10 ng/mL hydrocortisone, 10 ng/mL EGF, 1x ABAM under a 5% CO2 humidified atmosphere overnight. Skin explants were treated topically with 4 μL of each formulation for 48 hours. […] The fold changes were calculated in comparison to the untreated or vehicle controls and two-tailed two-sample Student t-tests (Microsoft Office Excel 2007; Microsoft, Redmond, WA, USA) were performed. Synergies were calculated as described above. […]"}, "[5]": {"system": "HBEGF", "assay": "HBEGF gene expression (qPCR) in human skin explants", "conditions": "human abdominal skin explants, topical 4 μL in PgETOH, 48 hours", "description": "as §2"}, "[6]": {"system": "IL8", "assay": "IL8 gene expression (qPCR) in human skin explants", "conditions": "human abdominal skin explants, topical 4 μL in PgETOH, 48 hours", "description": "Propylene glycol/ethanol (PgETOH) (3:7) (w/w) was used as a vehicle. 1% Colloidal oat (Avena Sativa Kernel Flour, Oat Cosmetics, Southampton, United Kingdom) and 0.1% Retinol solutions were each prepared in PgETOH as shown in Tables 4-7. Combinations were prepared by adding the appropriate amount of test solutions to arrive at the final concentrations as shown.\nAbdominal skin samples were obtained from human adults undergoing abdominoplasty surgery. Informed consent was obtained from each patient, and all experimental steps were approved by an institutional review board (IRB). Subcutaneous fat was carefully removed and skin biopsies of 0.93 cm^2 were prepared under sterile conditions and acclimated in DMEM/F12 (1:1) medium, 2% heat-inactivated fetal bovine serum, 10 μg/mL insulin, 10 ng/mL hydrocortisone, 10 ng/mL EGF, 1x ABAM under a 5% CO2 humidified atmosphere overnight. Skin explants were treated topically with 4 μL of each formulation for 48 hours. […]\nReverse transcription (RT) was performed using the Applied Biosystems High Capacity Reverse Transcription Kit (ThermoFisher Scientific, Bridgewater, NJ). […] The fold changes were calculated in comparison to the untreated or vehicle controls and two-tailed two-sample Student t-tests (Microsoft Office Excel 2007; Microsoft, Redmond, WA, USA) were performed. Synergies were calculated as described above. […]"}, "[7]": {"system": "CRABP2", "assay": "CRABP2 gene expression (qPCR) in human skin explants", "conditions": "human abdominal skin explants, topical 4 μL in PgETOH, 48 hours", "description": "as §2"}},
  "data": [
    {"smiles": "CC1=C(/C=C/C(C)=C/C=C/C(C)=C/CO)C(C)(C)CCC1", "note": "[Sample 1-2, Retinol]", "values": [
      {"measurement": "IL8 Average Fold Change over untreated", "setting": "[1]", "value": 2.05, "unit": "fold"},
      {"measurement": "HAS2 Average Fold Change over untreated", "setting": "[2]", "value": 0.79, "unit": "fold"},
      {"measurement": "CRABP2 Average Fold Change over untreated", "setting": "[3]", "value": 1.44, "unit": "fold"}
    ]},
    {"smiles": "CC1=C(/C=C/C(C)=C/C=C/C(C)=C/CO)C(C)(C)CCC1", "note": "[Sample 2-3, Retinol]", "values": [
      {"measurement": "HAS3 Average Fold Change over untreated", "setting": "[4]", "value": 3.05, "unit": "fold"},
      {"measurement": "HBEGF Average Fold Change over untreated", "setting": "[5]", "value": 3.50, "unit": "fold"},
      {"measurement": "IL8 Average Fold Change over untreated", "setting": "[6]", "value": 2.30, "unit": "fold"},
      {"measurement": "CRABP2 Average Fold Change over untreated", "setting": "[7]", "value": 3.95, "unit": "fold"}
    ]},
    {"smiles": "CC1=C(/C=C/C(C)=C/C=C/C(C)=C/CO)C(C)(C)CCC1", "note": "[Sample 1-3, Retinol]", "values": [
      {"measurement": "IL8 Average Fold Change over untreated", "setting": "[1]", "value": 18.83, "unit": "fold"},
      {"measurement": "HAS2 Average Fold Change over untreated", "setting": "[2]", "value": 0.50, "unit": "fold"},
      {"measurement": "CRABP2 Average Fold Change over untreated", "setting": "[3]", "value": 4.25, "unit": "fold"}
    ]}
  ]
}
